Test results: patent publication US20150374709A1, “TETRA-SUBSTITUTED NDGA DERIVATIVES VIA ETHER BONDS AND CARBAMATE BONDS AND THEIR SYNTHESIS AND PHARMACEUTICAL USE” (ERIMOS PHARMACEUTICALS LLC, priority 2006, published 2015)
Values joined by “and” are separate entries in the source; they are usually repeats but may differ in a detail not shown here. Identical values can stand only once. Counter-ions that a name gives are not always drawn. Like-named read-outs stand apart in the source and are kept apart here.

What was measured:
[1] = tested on: VEGF; test: ELISA VEGF assay (DFO-treated cells); format: cell-based, Human
Excerpt: ELISA (Enzyme-Linked ImmunoSorbent Assay) VEGF studies were done following manufacturer's instructions using the Endogen® Human VEGF ELISA kit, Catalog No. […] (Pierce Biotechnology, Inc., Rockford, Ill. USA). Hypoxic conditions are created for the cells by treating them with desferrioxamine (DFO), which chelates iron and causes the cells to secrete VEGF into the media. The supernatant (media) was removed and frozen for testing, and the cells were counted with the Trypan Blue assay so that the results can be normalized to cell count. The VEGF is measured with a sandwich ELISA that captures the protein in media on an antibody-coated microplate, and then uses a biotinylated antibody reagent to detect the protein. Results from a standard curve enable the user to quantify the amount of protein in each sample.

[2] = tested on: A549 (lung carcinoma); test: MTS cell viability assay, A549; format: cell-based; conditions: Homo sapiens
Excerpt: (§1) Studies performed regarding cytotoxicity included the well-known MTS, Trypan Blue and MTT protocols. The MTS studies were done using the CellTiter 96®AQueous One Solution Cell Proliferation Assay (Promega Corporation, Madison, Wis. USA). Metabolically active, namely viable, cells turn MTS, a tetrazolium compound (3-(4,5-dimethylthiazol-2-yl)-5-(3-carboxymethoxyphenyl)-2-(4-sulfophenyl)-2H-tetrazolium, inner salt) into colored formazan, which is soluble in tissue culture medium. The measurement of the absorbance of the formazan is read at 490 nm. The ready to use reagent is added directly to the cells in media in 96-well plates, incubated 1-4 hours and the results are recorded by the plate reader. The IC50 is estimated by graphing the gathered data. The IC50 is the concentration of the tested material that inhibits 50% of growth or viability of the tested material compared to a control.
(§2) Three cell lines obtained from ATCC and maintained as directed by ATCC were tested: HeLa (cervical adenocarcinoma), A549 (lung carcinoma), and COS-7 (SV40 transformed monkey kidney). Studies of these cell lines are considered to be indicative of the effect of tested substances on mammalian, including human, diseases.
(§3) All compounds were dissolved in DMSO and DMSO is used as the placebo. The samples were first dissolved into 10 mM dilutions in DMSO and then diluted further to 5, 1, 0.5, 0.1, 0.05, and 0.01 mM solutions. These solutions were added to the media at a 1% concentration (1 μl to 100 μl media) to treat the cells with 100, 50, 10, 5, 1, 0.5, and 0.1 μM of the compound. […] Solutions were checked before use for precipitation, especially the 10 mM solutions. If there was precipitation, they were warmed 65° C. and added to warmed media.
(§4) Wells on a 96-well plate were seeded with 1.5-8×10^4 cells in 100 μl media and incubated overnight. The outside wells of the plate were filled with 200 μl sterile, deionized (DI) water to curb media evaporation. After 24 hours, test chemicals were prepared in media at a concentration of 1% media volume. The test sample media were added, mixing with pipette before adding 100 μl per well. Media was added to the “Media Only” wells. The well plate and its contents were incubated for 24-72 hours, depending on the study conducted. On the thy of the MTS assay, the MTS reagent was removed from the refrigerator and brought to room temperature. Using the multichannel pipette, 20 μl of the MTS reagent was added to each well and incubated for one to four hours. The plate was read at 490 nm with a reference wavelength of 690 nm after one hour in the incubator thereafter until the blank wells were at about 0.2 OD. The results were then scanned into a Microsoft® Excel® template designed to perform all necessary calculations whim data are entered. The data were checked for statistical errors; data points that are within 10% of the mean of the data points for that group were included. The average of the blanks (“Media Only”) were subtracted and the data were inserted into a chart that represents growth response, treated/untreated.

[3] = tested on: survivin; test: ELISA survivin assay (cell lysates); format: cell-based, Human
Excerpt: Survivin is an inhibitor of apoptosis that is abundantly expressed in many human cancers, but not in normal adult human tissue, and is considered a possible modulator of the terminal effector phase of cell death/survival. Survivin is expressed in G2-M in a cell cycle-dependent manner, binding directly to mitotic spindle microtubules. […] Phosphorylated survivin acts on the caspase pathway to suppress the formation of caspase-3 and caspase-9, thereby inhibiting apoptosis. Thus, compounds that reduce the expression of survivin will be expected to increase the rate of apoptosis and cell death.
Effects of the tested compounds on survivin were studied following manufacturer's instructions using the Surveyor™ IC Human Total Survivin Immunoassay, Catalog No. SUV647 (R&D Systems, Inc.). Cell lysates were analyzed for survivin protein content. The kit includes a plate coated with an antibody specific for survivin and a biotinylated antibody reagent that recognizes survivin bound to the plate. The plate is read on a plate reader set at 450 nm and corrected at 540 nm. A protein assay according to the Bradford method (Bradford, M. 1976, Anal Biochem 72: 248-254) was used to quantify and normalize the samples according to total protein content. Results from a standard curve enable the user to quantify the amount of survivin protein in each sample.

[4] = tested on: HeLa (cervical adenocarcinoma); test: MTS cell viability assay, HeLa; format: cell-based; conditions: Homo sapiens, HeLa, read-out: HeLa IC50
Excerpt: as §1, §2, §3, §4

[5] = tested on: apoptosis of cells based on DNA fragmentation; test: TiterTACS DNA fragmentation apoptosis assay; format: cell-based; conditions: TiterTACS apoptosis detection
Protocol: Antiproliferative activity is determined using the TiterTACS® Apoptosis Detection Kit (R&D Systems Inc., Minneapolis, Minn. USA) relating to apoptosis of cells based on DNA fragmentation, and by the ELISA VEGF ([…]) and survivin assays.
In the DNA fragmentation assay, in situ detection of apoptosis is specifically achieved with TiterTACS® 96-well Apoptosis Detection kit, Catalog No. TA600 (R&D Systems, Inc.). The TiterTACS® assay provides quantification of apoptosis in cultured cells without direct counting of labeled cells using colorimetric detection. Cells are treated with the test compounds, left untreated as experimental negative controls, or treated with TACS nuclease as positive controls. TACS nuclease allows positive controls to be generated for each experimental system: a brief treatment of cells with the TACS nuclease prior to labeling generates DNA breaks in every cell, providing an appropriate positive control specific for the system under study. The TdT enzyme that catalyzes the addition of dNTPs to DNA fragments allows for colorimetric detection of at 450 nm by using a streptavidin-HRP solution followed by the TACS-Sapphire substrate. A high absorbance at 450 nm is indicative of apoptosis in the cells. Treated cells are compared to untreated cells and to nuclease-cleaved cells to assess the extent of apoptosis.

[6] = Caco-2 monolayer bidirectional permeability; format: in vitro ADME, human; conditions: human, Caco-2, pH 7.4; control at 5 μM, 90 minutes, duplicate monolayers
Protocol: (§5) Permeability studies were conducted by an outside contractor on behalf of the assignee of the present invention and application to determine the permeability of Compound A through Caco-2 monolayers. An important factor of oral bioavailability is the ability of e compound to be absorbed in the small intestine. Measurement of drug apparent permeability (Papp) through cell monolayers is well correlated with human intestinal absorption, and several mammalian cell lines, including Caco-2, LLC-PK1 and MDCK, are appropriate for this measurement (Artursson, P. et al., Correlation between oral drug absorption in humans and apparent drug permeability coefficients in human intestinal epithelial (Caco-2) cells. Biochem Biophys Res Comm 175:880-885 (1991); Stewart. B. H., et al., Comparison of intestinal permeabilities in multiple in vitro and in situ models: relationship to absorption in humans. Pharm Res 12:693 (1995)). P-Glycoprotein (P-gp, encoded by MDR1) is a member of the ABC transporter super family and is expressed in the human intestine, liver and other tissues. Intestinal expression of P-gp may affect the oral bioavailability of drug molecules that are substrates for this transporter. Interaction with P-gp can be studied using direct assays of drug transport in polarized cell systems such as Caco-2 cell monolayers, and human P-gp cDNA-expressing LLC-PK1 and MDCK cell monolayers. Caco-2 cells (human adenocarcinoma colonic cell line Caco-2, ATCC Cat. No. […] The cells were cultured for 21-25 days with media replacement every 3-4 days. Monolayer integrity was evaluated by pre-experimental trans-epithelial electrical resistance (TEER) measurements and post-experimental lucifer yellow A to B flux determinations. […] Receiver solution was prepared by adding 1% DMSO to transport buffer. The test solution was of Compound A in DMSO in transport buffer at a final DMSO concentration of 1%. […] The donor and receiver solutions were added to the apical or basolateral chambers of the monolayers (depending on the direction of transport to be measured). The monolayers were incubated on an orbital shaker (50 rpm) at 37° C., with ambient humidity and CO2. After 90 minutes, samples from the donor and receiver chambers were removed for analysis. […] Duplicate monolayers were used for each incubation. Samples were analyzed by LC/MS/MS using peak area ratios to an internal standard. Test article concentrations were calculated based on the peak area ratios obtained for appropriate dilutions of the donor solution containing the test article at the nominal concentration in transport buffer. Samples were diluted as appropriate to ensure that the response was within the linear range of the mass spec detector. Comparator and control samples were analyzed by liquid scintillation counting. Lucifer yellow concentrations were determined using a fluorescence plate reader.

[7] = tested on: Caco-2 cell monolayers; test: Caco-2 monolayer bidirectional permeability; format: in vitro ADME, human
Protocol: as §5

[8] = VEGF released into media by DFO-treated cells, normalized to cell count; read-out: VEGF IC50
[9] = A549, MTS assay, read-out: A549 IC50
[10] = survivin protein in cell lysates, normalized to total protein; read-out: Survivin IC50
[11] = read-out: Survivin IC50; survivin protein in cell lysates, normalized to total protein

C[C@H](Cc1ccc(OCCCCN2CCCCC2)c(OCCCCN2CCCCC2)c1)[C@@H](C)Cc1ccc(OCCCCN2CCCCC2)c(OCCCCN2CCCCC2)c1 [Compound D, 1,4-bis{3,4-bis[4-(N-piperidino)butoxyl]phenyl}-2,3-dimethyl-(2R,3S)-butane tetrakis-hydrochloride salt]
IC50 [1, 8]: ~9 µM and 9 µM | IC50 [2, 9]: 1 to 5 µM | IC50 [3, 10]: ~4 µM and 4 µM | IC50 ([4]; MTS assay): 5 to 10 µM | DNA fragmentation [5]: Positive

C[C@H](Cc1ccc(OCCN(C)C)c(OCCN(C)C)c1)[C@@H](C)Cc1ccc(OCCN(C)C)c(OCCN(C)C)c1 [Compound G, 1,4-bis{3,4-bis(2-(N,N′-dimethylamino)-ethoxy)phenyl}-2,3-dimethyl-(2R,3S)-butane]
IC50 ([1]; read-out: VEGF IC50; VEGF released into media by DFO-treated cells, normalized to cell count; listed as G in H2O): 25 µM | IC50 ([2]; A549, read-out: A549 IC50): 15 to 20 µM | IC50 [4]: 15 to 20 µM

C[C@H](Cc1ccc(OCCN(C)C)c(OCCN(C)C)c1)[C@@H](C)Cc1ccc(OCCN(C)C)c(OCCN(C)C)c1 [Compound H, 1,4-bis{3,4-bis(2-(N,N′-dimethylamino)-ethoxy)phenyl}-2,3-dimethyl-(2R,3S)-butane tetrakishydrochloride salt]
IC50 ([1]; read-out: VEGF IC50; VEGF released into media by DFO-treated cells, normalized to cell count; listed as H in H2O): 23 µM | IC50 [3, 11]: 10 µM | DNA fragmentation [5]: Positive

C[C@H](Cc1ccc(OCCF)c(OCCF)c1)[C@@H](C)Cc1ccc(OCCF)c(OCCF)c1 [Compound K, 1,4-bis[3,4-bis(2-fluoro-ethoxyl)phenyl]-2,3-dimethyl-(2R,3S)-butane]
IC50 [2, 9]: > 100 µM | IC50 ([4]; MTS assay): > 100 µM

C[C@H](Cc1ccc(OCCCCN2CCOCC2)c(OCCCCN2CCOCC2)c1)[C@@H](C)Cc1ccc(OCCCCN2CCOCC2)c(OCCCCN2CCOCC2)c1 [Compound M, 1,4-bis{3,4-bis[4-(N-morpholino)butoxyl]phenyl}-2,3-dimethyl-(2R,3S)-butane]
IC50 [1, 8]: ~9 µM and 9 µM | IC50 [2, 9]: 1 to 5 µM | IC50 [3, 10]: 5 µM | IC50 ([4]; MTS assay): 5 to 10 µM | DNA fragmentation [5]: Positive

C[C@H](Cc1ccc(OCCCCN2CCN(C)CC2)c(OCCCCN2CCN(C)CC2)c1)[C@@H](C)Cc1ccc(OCCCCN2CCN(C)CC2)c(OCCCCN2CCN(C)CC2)c1 [Compound O, 1,4-bis{3,4-bis[4-(N-methyl-piperazino-N′-yl)butoxyl]phenyl}-2,3-dimethyl-(2R,3S)-butane octa-hydrochloride]
IC50 ([1]; read-out: VEGF IC50; VEGF released into media by DFO-treated cells, normalized to cell count): 18 µM | IC50 ([2]; A549, read-out: A549 IC50): 8 to 9 µM | IC50 [3, 11]: 14 µM | IC50 [4]: 10 to 30 µM | DNA fragmentation [5]: Positive

C[C@H]1O[C@@H](O[C@H]2[C@@H](O)C[C@H](O[C@H]3[C@@H](O)C[C@H](O[C@H]4CC[C@@]5(C)[C@H](CC[C@@H]6[C@@H]5C[C@@H](O)[C@]5(C)[C@@H](C7=CC(=O)OC7)CC[C@]65O)C4)O[C@@H]3C)O[C@@H]2C)C[C@H](O)[C@@H]1O [digoxin, reference compound]
Papp B→A at 90 min [6]: 12.4 ×10⁻⁶ cm/s | Papp mean A to B ([7]; comparators/control at the concentration in the row (5 or 50 μM), 90 minutes, duplicate monolayers): 2.28 ×10⁻⁶ cm/s | Mass balance mean A to B ([7]; comparators/control, 90 minutes): 73% | Mass balance mean B to A ([7]; control, 90 minutes): 79%

OC[C@@H](O)[C@@H](O)[C@H](O)[C@H](O)CO [mannitol, reference compound]
Mass balance mean A to B ([7]; human, Caco-2, 90 min, pH 7.4): 96%

CC(C)NCC(O)COc1cccc2ccccc12 (centres unmarked) [propranolol, reference compound]
Mass balance mean A to B ([7]; human, Caco-2, 90 min, pH 7.4): 71%
